Measured values reported in patent US20250186319A1, “ANAPLEROTIC COMPOSITIONS AND USES THEREOF” (EXCELLA BIOSCIENTIFIC LTD, priority 2021, published 2025).
Values after ≈ are worked out from the molar mass of the structure shown. Read-outs that look alike come from different tables or passages of the source.

Tests used:
P. acnes = assay: MIC/MBC against P. acnes by microdilution method; type: cell-based; settings: for MIC: Cutibacterium acnes; for MBC: TriAza batches and their soaps
Excerpt: TriAza was designed as a pro-drug of azelaic acid, a known antibacterial agent, for the treatment of skin disorders associated with pathogenic propagation of bacteria. For example, the development of Acne vulgaris is tightly associated with extensive accumulation of P. acnes in the sebaceous gland, a milieu of the disease. To determine the antibacterial activity of TriAza against P. acnes, we tested the minimal bactericidal concentration (MBC) of TriAza. The effect of TriAza was compared to the MBC of azelaic acid and benzoyl peroxide (BPO), two main competitors used in the treatment of acne.
To compare the antimicrobial activities of various batches of TriAza we determined MIC of number of batches that were prepared with non-principal modifications. Selected batches were labeled as TriAza −3, TriAza −6, TriAza −7 and TriAza −19 and supplied to the growth medium of P. acnes. A, minimal inhibitory concentration of the batches was monitored and compared to each other. […] For further analysis, batch TriAza −19 was chosen as a batch containing the minimal amount of pelargonic acid.
Since TriAza is designed for marketing as a soap, we decided to define an antibacterial activity of its soap. […] It should be stressed that despite the decreased activity of TriAza soap it is still higher than that of azelaic acid (Table 1 and 2).
Example 12: Microbiome balance effect: Selection of methods for QC-quality control-Functional Potency. Testing minimal inhibitory concentration (MIC) to P. acnes was executed by microdilution method. TriAza based biocontrol, microbial preservation. P. acnes after double passage on Chocolate plates (Novamed) were grown bacteria in anaerobic conditions at 37° C. for 1-2 days. The bacteria were Gram stained and the proper morphology of the bacteria was assured. Then, bacteria were resuspended in Thioglycolate medium (HyLabs) at concentration of 0.02 O.D.600. Meanwhile, ELISA plates containing at the first raw 200 μl of undiluted tested material were prepared. The rest wells were filled with 100 μl of Thioglycolate medium and 11 serial […] by transferring 100 μl of undiluted material was performed. Once the ELISA plate was ready, 100 μl of prepared bacterial culture was added. Bacteria alone and medium w/o bacteria were used as standard controls. The plates were incubated in anaerobic conditions at 37° C. for 2 days. Minimal inhibitory concentration was determined visually and spectrophotometrically, while minimal bactericidal concentration was determined after plating of the bacteria on solid medium (Chocolate plates). On the plates bacteria were incubated in anaerobic conditions at 37° C. for 2 days and the number of appearing colonies were counted manually. Specification for positive functional potency for batch acceptance for the TriAza batches tested are selected in range of antimicrobial activity-MIC between 0,25-1 mM.
P. acnes after double passage on Chocolate plates (Novamed) were grown in anaerobic conditions at 37° C. for 1-2 days. The bacteria were Gram stained and the proper morphology of the bacteria was assured. Then, bacteria were resuspend in Thioglycolate medium
(HyLabs) at concentration of 0.02 O.D.600. Meanwhile, ELISA plates containing at the first raw undiluted tested material were prepared. The rest wells were filled with 100 μl of Thioglycolate medium and 11 serial ½ dilutions by transferring 100 ul of undiluted material was performed. Once the ELISA plate was ready, 100 ul of prepared bacterial culture was added. Bacteria alone and medium w/o bacteria were used as standard controls. The plates were incubated in anaerobic conditions at 37° C. for 2 days. Minimal inhibitory concentration was determined visually and spectrophotometrically, while minimal bactericidal concentration was determined after plating of the bacteria on solid medium (Chocolate plates). […]

[1] = system: Staphylococcus aureus (S. aureus); assay: MIC/MBC against S. aureus; type: cell-based
Excerpt: (§1) For this purpose, we selected a few major skin pathogens and tested their sensitivity to TriAza. We chose Staphylococcus aureus (S. aureus) and Candida albicans (C. albicans), representing bacterial and fungal genera, respectively. Both organisms' express lipase. The bacteria and fungi were exposed to various concentrations of TriAza −19 and its sodium salt, and both the MICs and MBCs of the agents were statistically determined. […] The slight difference in MICs of TriAza against the tested organisms can stem from the difference in their lipase activity.

[2] = system: Candida albicans (C. albicans); assay: MIC/MBC against C. albicans; type: cell-based
Excerpt: as §1

lipase from P. cepacia = molecular target: T1, lipase from P. cepacia (Burkholderia cepacia, UniProt P22088); assay: Bacterial lipase hydrolysis of TriAza, azelaic acid production by TLC; type: biochemical; settings: increasing enzyme amounts, 37° C.
T1 construct: purchased
Procedure: To determine the affinity of a bacterial lipase to the active ingredient according to the embodiments of the invention, the ability of the lipase to utilize TriAza as a substrate was tested. For this purpose, the commercially available lipase from P. cepacian was used. Increasing amounts of the enzyme were mixed with a fixed concentration of the substrate, and incubated for a few hours at 37° C. The enzymatic activity was monitored by TLC, by registering the production of azelaic acid.
(§2) Pure pro-drug activity of designed molecules implies their high specificity towards the target enzyme. TriAza represents the glycerol ester of a specific fatty acid that might be recognized by a mammalian esterase or other triglyceride-utilizing lipase. To establish specificity of bacterial lipase to TriAza, the lipase activity from P. cepacia to that of mammalian esterase and phospholipase A2 were compared. […] The extents of enzyme activities were registered according to the level of generation of azelaic acid.

mammalian esterase = assay: Specificity: hydrolysis of TriAza by esterase; type: biochemical; settings: equally active enzyme amounts, fixed TriAza concentration
Excerpt: as §2

phospholipase A2 = assay: Specificity: hydrolysis of TriAza by phospholipase A2; type: biochemical; settings: equally active enzyme amounts, fixed TriAza concentration
Excerpt: as §2

[3] = system: P. acnes-associated lipase; assay: P. acnes-associated lipase activity in live culture, release of azelaic acid (TLC); type: cell-based; settings: day 1 and day 5
Procedure: The activity of C. acnes-associated and P. acnes-associated lipase was tested in the presence of triolein (a trigger of lipase activity). Bacteria was grown for 4 days in liquid medium. P. acnes after double passage on Chocolate plates (Novamed) were grown bacteria in anaerobic conditions at 37° C. for 1-2 days. The bacteria were Gram stained, and the proper morphology of the bacteria was assured. Then, 1 O.D. 600 bacteria were resuspended in 1 ml of Thioglycolate medium (HyLabs) containing 50 μl triolein and grown in anaerobic conditions at 37° C. for 4 days. Following this incubation, 100 μl of emulsified substrate was added to the culture that was further maintained at 37° C. for overnight. Afterwards, the supernatant was separated from the bacteria by 1 min centrifugation at 10000 rpm and subjected to lipid extraction using clorophorm: methanol (2:1). The lipids after nitrogen evaporation and resuspension in clorophorm: methanol (2:1) were separated on silica TLC plates in a development solution of clorophorm: methanol: water (65:25:4), and visualized with BromCresol Green (Sigma).

[4] = Subjective evaluation of skin aged appearance in volunteers; type: in vivo, human; settings: scale −3 to 3; three volunteers; after month of use
Procedure: Method of subjective qualitative evaluation of skin whitening and smoothening at the test site and improvement in fine lines is evaluated subjectively by the investigator and/or by the subjects in accordance with the following scoring pattern:−3=marked deterioration;−2=moderate, visibly uneven deterioration;−1=slight deterioration; 0=no perceptible change or improvement; 1=slight change or improvement; 2=moderate change or improvement (whitening; perceptible and visible change, with less than 50% lightening of skin color); 3=marked or improvement remarkable change or improvement (whitening; very visible change with even and uniform skin whitening covering more than 80% of the contact area). Three study volunteers used TriAza for reduction of skin “aged appearance”-all three after month of use reported 2-3 scale of appearance improvement.

S. aureus = S. aureus spiked contamination screen of natural preservatives in chocolate spread; type: cell-based; parameters: unit not given here
Excerpt: In addition, even MCT, and derivatives are screened as useful natural preservatives of the composition, GML-glycerol monolaurate is selected as an adjunctive multifunctional natural preservative to MOCL based composition.

[5] = TriAza value is batch #5, MIC of L-PABS equals its MBC, read-out: MIC

T1 sequence (P22088 45-364): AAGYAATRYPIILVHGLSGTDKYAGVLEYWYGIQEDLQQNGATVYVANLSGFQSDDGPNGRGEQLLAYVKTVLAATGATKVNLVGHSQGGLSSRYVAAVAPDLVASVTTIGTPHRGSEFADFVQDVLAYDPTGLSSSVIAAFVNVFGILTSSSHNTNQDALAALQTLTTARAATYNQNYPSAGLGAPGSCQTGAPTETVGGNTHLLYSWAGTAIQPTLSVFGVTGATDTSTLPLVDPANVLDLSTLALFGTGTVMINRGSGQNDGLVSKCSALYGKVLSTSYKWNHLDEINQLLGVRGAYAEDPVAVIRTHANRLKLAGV

**Q.** For `O=C(O)CCCCCCCC(=O)O` [Azelaic acid, reference compound], which MIC (P. acnes; [5]) is on record?
**A.** 3750 µg/mL

**Q.** For `O=C(O)CCCCCCCC(=O)OCC(COC(=O)CCCCCCCC(=O)O)OC(=O)CCCCCCCC(=O)O` [TriAza-7], which MBC (P. acnes) is on record?
**A.** 2000 µg/mL (≈ 3.32 mM)

**Q.** Which MIC (P. acnes; [5]) does the source give for `O=C(OOC(=O)c1ccccc1)c1ccccc1` [BPO, benzoyl peroxide, reference compound] here?
**A.** 500 µg/mL

**Q.** Which results are given for `O=C(O)CCCCCCCC(=O)OCC(COC(=O)CCCCCCCC(=O)O)OC(=O)CCCCCCCC(=O)O` [TriAza-19]?
**A.** MBC (P. acnes): 1000 µg/mL (≈ 1.66 mM); MBC [1]: 10000 µg/mL (≈ 16.6 mM); MIC [1]: 5000 µg/mL (≈ 8.3 mM); MBC [2]: 24000 µg/mL (≈ 39.8 mM); MIC [2]: 20000 µg/mL (≈ 33.2 mM)

**Q.** For `O=C(O)CCCCCCCC(=O)OCC(COC(=O)CCCCCCCC(=O)O)OC(=O)CCCCCCCC(=O)O` [TriAza, Glycerol triazelate], which MIC (P. acnes; [5]) is on record?
**A.** 1950 µg/mL

**Q.** What about the MIC (P. acnes; batch VA4-1, with surfactant or emulsifier, read-out: MIC bacteriostatic activity, concentration sufficient to stop growth) of the same molecule?
**A.** 1000 µM

**Q.** And the “activity of TriAza relative to Azelaic acid” value (P. acnes; stronger than Azelaic acid)?
**A.** 2 fold

**Q.** And the “utilization as substrate, accumulation of azelaic acid” value (lipase from P. cepacia)?
**A.** could be utilized as a substrate for bacterial lipase activity

**Q.** What about the “generation of azelaic acid by esterase” value (mammalian esterase) of the same molecule?
**A.** neither esterase nor phospholipase A2 could produce azelaic acid

**Q.** And the “generation of azelaic acid by phospholipase A2” value (phospholipase A2)?
**A.** neither esterase nor phospholipase A2 could produce azelaic acid

**Q.** And the “time-dependent release of azelaic acid” value [3]?
**A.** maximum lipase hydrolysis on day 5

**Q.** What about the appearance improvement score [4] of the same molecule?
**A.** 2-3

**Q.** With `O=C(O)CCCCCCCC(=O)OCC(COC(=O)CCCCCCCC(=O)O)OC(=O)CCCCCCCC(=O)O` [TriAza-3] as the molecule, how does the MBC (P. acnes) read?
**A.** 1000 µg/mL (≈ 1.66 mM)

**Q.** Which MBC (P. acnes) does the source give for `O=C(O)CCCCCCCC(=O)OCC(COC(=O)CCCCCCCC(=O)O)OC(=O)CCCCCCCC(=O)O` [TriAza-6] here?
**A.** 2800 µg/mL (≈ 4.65 mM)

**Q.** With `CCCCCCCCC(=O)OCC(COC(=O)CCCCCCCC)OC(=O)CCCCCCCC` [tripelargonin] as the molecule, how does the MIC (S. aureus) read?
**A.** 23
